Values after ≈ are worked out from the molar mass of the structure shown. Where two headings read alike, the source gives them in different places. Each block holds one compound with its values, some of them ahead of it.
Key:
[1] = DPPH free radical scavenging activity; assay type: biochemical; settings: for DPPH scavenging EC50: analyzed using XLSTAT software
[2] = parameters: method as in PMID 23181593; settings: at 100 μg/mL; cited from earlier work
[3] = ABTS assay; assay type: biochemical; settings: for ABTS scavenging EC50: analyzed using XLSTAT software
[4] = parameters: method as in PMID 23181593; settings: cited from earlier work
[5] = tested on: Streptococcus mutans ATCC-25175; assay: Disc diffusion, zone of inhibition
[6] = tested on: Bacillus subtilis ATCC-11774; assay: Disc diffusion, zone of inhibition
[7] = tested on: Salmonella typhimurium ATCC-13311; assay: Disc diffusion, zone of inhibition; assay type: cell-based; settings: Salmonella enterica, S. typhimurium, read-out: Zone of inhibition, standard drug
Description: Ciprofloxacin and fluconazole were used as standard antimicrobial drugs at a concentration (10 μg/disc) for bacterial and fungal strains, respectively.
MHA was used for culturing the bacteria from bacterial broth and kept at 37 °C for 24 h. The fungal broth was used to prepare fungal culture in PDB and it was kept at 28 °C for 48 h.

[8] = tested on: B. cereus ATCC-10876; assay: Disc diffusion, zone of inhibition; settings: Bacillus cereus
[9] = tested on: Staphylococcus aureus ATCC-11632; assay: Disc diffusion, zone of inhibition
[10] = tested on: Candida albicans ATCC-66027; assay: Disc diffusion, zone of inhibition
[11] = tested on: Saccharomyces cerevisiae ATCC-9763; assay: Disc diffusion, zone of inhibition
[12] = tested on: A. niger ATCC-16885; assay: Disc diffusion, zone of inhibition
[13] = tested on: Aspergillus fumigatus ATCC-204305; assay: Disc diffusion, zone of inhibition
[14] = biological target: Acetylcholinesterase (Homo sapiens, UniProt P22303); assay: Acetylcholinesterase inhibitory assay; assay type: biochemical
Sequence of Acetylcholinesterase (P22303 32-614, species assumed): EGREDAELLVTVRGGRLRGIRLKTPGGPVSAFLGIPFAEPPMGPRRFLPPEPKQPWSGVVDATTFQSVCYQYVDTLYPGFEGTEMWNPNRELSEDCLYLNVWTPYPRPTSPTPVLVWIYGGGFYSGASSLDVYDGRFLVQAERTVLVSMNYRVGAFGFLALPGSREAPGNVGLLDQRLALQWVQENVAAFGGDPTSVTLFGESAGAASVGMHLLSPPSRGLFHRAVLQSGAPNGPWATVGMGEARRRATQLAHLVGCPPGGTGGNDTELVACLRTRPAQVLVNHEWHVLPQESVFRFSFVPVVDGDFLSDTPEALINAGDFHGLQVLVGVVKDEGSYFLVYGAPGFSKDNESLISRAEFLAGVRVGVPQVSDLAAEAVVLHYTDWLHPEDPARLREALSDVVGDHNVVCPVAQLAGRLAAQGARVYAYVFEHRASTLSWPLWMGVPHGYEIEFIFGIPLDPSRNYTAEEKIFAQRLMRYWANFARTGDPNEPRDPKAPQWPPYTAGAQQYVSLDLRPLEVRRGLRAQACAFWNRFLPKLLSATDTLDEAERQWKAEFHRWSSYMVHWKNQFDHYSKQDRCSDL

[15] = tested on: Allium cepa root; settings: 1 μL/mL
[16] = tested on: Bacillus subtilis ATCC-11774; assay: Broth micro dilution MIC; assay type: cell-based; settings: ATCC11774, B. subtilis
[17] = tested on: Allium cepa root tips; assay: Allium cepa assay, mitotic index and stages of dividing cells
From the text: (§1) The frequency of chromosomal aberration was checked following protocol of Babatunde and Bakare[31].

[18] = tested on: A. parasiticus; settings: cited from earlier work
[19] = tested on: BChE; parameters: method as in PMID 19351555; settings: cited from earlier work
[20] = tested on: AChE; parameters: method as in PMID 19351555; settings: cited from earlier work
[21] = tested on: Staphylococcus aureus ATCC-11632; assay: Broth micro dilution MIC; assay type: cell-based; settings: ATCC11632, S. aureus
[22] = tested on: Aspergillus fumigatus ATCC-204305; assay: Broth micro dilution MIC; assay type: cell-based; settings: ATCC204305, A. fumigatus
[23] = biological target: T1, egg albumin (Gallus gallus, UniProt P01012); assay: Protein egg albumin denaturation assay; assay type: biochemical
T1 construct: albumin was extracted from a fresh egg collected from local market of Jorhat, India; from tissue; host or cells: fresh egg (egg white), local market
T1 sequence (P01012 whole entry): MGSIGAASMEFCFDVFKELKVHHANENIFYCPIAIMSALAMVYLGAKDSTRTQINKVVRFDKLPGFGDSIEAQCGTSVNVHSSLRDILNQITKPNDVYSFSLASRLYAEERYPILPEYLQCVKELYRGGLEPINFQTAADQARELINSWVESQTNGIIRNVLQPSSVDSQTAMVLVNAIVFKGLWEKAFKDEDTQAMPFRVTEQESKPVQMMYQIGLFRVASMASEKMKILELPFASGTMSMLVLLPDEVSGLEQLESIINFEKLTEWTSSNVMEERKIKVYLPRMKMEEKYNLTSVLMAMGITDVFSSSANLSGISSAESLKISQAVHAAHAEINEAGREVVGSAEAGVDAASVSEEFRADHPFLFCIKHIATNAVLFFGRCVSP

[24] = tested on: Streptococcus mutans ATCC-25175; assay: Broth micro dilution MIC; assay type: cell-based; settings: ATCC25175, S.mutans
[25] = biological target: α-Amylase; assay: Antidiabetic activity assay (α-amylase inhibitory); assay type: biochemical
[26] = Metal chelating activity assay; assay type: biochemical; settings: for Metal chelating EC50: analyzed using XLSTAT software
[27] = tested on: Allium cepa root; assay: Allium cepa assay, root growth; settings: 1 μL/mL
[28] = tested on: Allium cepa root tips; assay: Allium cepa assay, chromosomal aberration test; settings: 01.00 µL/mL; 72 h
From the text: as §1

[29] = analyzed using Graph Pad Prism software
[30] = analyzed using MS-EXCEL software
[31] = Aspergillus fumigatus, ATCC204305

DPPH scavenging IC50 [1, 29]: 0.60 ± 0.121 µg/mL | DPPH scavenging IC50 [1, 30]: 17.27 ± 0.004 µg/mL | DPPH scavenging EC50 [1]: 17.55 ± 0.056 µg/mL | ABTS scavenging IC50 [3, 29]: 39.31 ± 0.84 µg/mL | ABTS scavenging IC50 [3, 30]: 17.61 ± 0.012 µg/mL | ABTS scavenging EC50 [3]: 19.54 ± 0.121 µg/mL
SMILES: O=C1O[C@H]([C@@H](O)CO)C(O)=C1O [Ascorbic acid]
Reducing power [2]: 0.85 | DPPH scavenging activity ([4]; at 1000 μg/mL): 99.65% | DPPH IC50 [4]: 5.15 µg/mL

SMILES: O=C(O)c1cn(C2CC2)c2cc(N3CCNCC3)c(F)cc2c1=O [ciprofloxacin, Ciprofloxacin]
zone of inhibition at 10 µg/disc ([5]; ATCC25175, read-out: Zone of inhibition, standard drug): 7 ± 0.015 mm | zone of inhibition at 10 µg/disc ([6]; ATCC11774, read-out: Zone of inhibition, standard drug): 16 ± 0.015 mm | zone of inhibition at 10 µg/disc [7]: 21 ± 0.015 mm | zone of inhibition at 10 µg/disc ([8]; ATCC10876, read-out: Zone of inhibition, standard drug): 15 ± 0.013 mm | zone of inhibition at 10 µg/disc ([9]; ATCC11632, read-out: Zone of inhibition, standard drug): 19 ± 0.017 mm

SMILES: OC(Cn1cncn1)(Cn1cncn1)c1ccc(F)cc1F [fluconazole]
Zone of inhibition, standard drug ([10]; C. albicans, 10 µg/disc): 20 ± 0.014 mm | zone of inhibition at 10 µg/disc ([10]; Candida albicans, ATCC66027, read-out: Zone of inhibition, standard drug): 20 mm | Zone of inhibition, standard drug ([11]; S. cerevisiae, 10 µg/disc): 14 ± 0.016 mm | zone of inhibition at 10 µg/disc ([11]; Saccharomyces cerevisiae, ATCC9763, read-out: Zone of inhibition, standard drug): 14 mm | Zone of inhibition, standard drug ([12]; A. niger, 10 µg/disc): 12 ± 0.013 mm | zone of inhibition at 10 µg/disc ([12]; Aspergillus niger, ATCC16885, read-out: Zone of inhibition, standard drug): 12 mm | Zone of inhibition, standard drug ([13]; A. fumigatus, 10 µg/disc): 16 ± 0.011 mm | zone of inhibition at 10 µg/disc ([13]; Aspergillus fumigatus, ATCC204305, read-out: Zone of inhibition, standard drug): 16 mm

SMILES: C/C=C/c1ccc(OC)cc1 [Anethole standard, anethole]
DPPH scavenging IC50 [1, 29]: 0.58 ± 0.048 µg/mL | DPPH scavenging IC50 [1, 30]: 10.94 ± 0.026 µg/mL | DPPH scavenging EC50 [1]: 8.69 ± 0.058 µg/mL | EC50 [14]: 208 µM | IC50 ([14]; Acetylcholinesterase inhibitory IC50, analyzed using Graph Pad Prism software): 145 µM | IC50 ([14]; Acetylcholinesterase inhibitory IC50, analyzed using MS-EXCEL software): 228 µM | zone of inhibition at 500 µg/mL ([10]; Candida albicans, ATCC66027): 19 mm | Root length before treatment ± SD ([15]; 0 h): 7.71 ± 0.016 cm | Root length after treatment ± SD ([15]; 72 h): 8.36 ± 0.009 cm | zone of inhibition at 500 µg/mL ([11]; Saccharomyces cerevisiae, ATCC9763): 16 mm | zone of inhibition at 250 µg/mL ([12]; Aspergillus niger, ATCC16885): 16 mm | zone of inhibition at 500 µg/mL ([12]; Aspergillus niger, ATCC16885): 21 mm | zone of inhibition at 50 µg/mL ([5]; ATCC25175): 12 mm | zone of inhibition at 100 µg/mL ([5]; ATCC25175): 16 mm | zone of inhibition at 250 µg/mL ([5]; ATCC25175): 18 mm | zone of inhibition at 500 µg/mL ([5]; ATCC25175): 23 mm | MIC [16]: 90 µg/mL (≈ 607 µM) | ABTS scavenging IC50 [3, 29]: 34.9 ± 0.004 µg/mL | ABTS scavenging IC50 [3, 30]: 9.26 ± 0.002 µg/mL | ABTS scavenging EC50 [3]: 9.48 ± 0.048 µg/mL | zone of inhibition at 100 µg/mL ([6]; ATCC11774): 8 mm | zone of inhibition at 250 µg/mL ([6]; ATCC11774): 11 mm | zone of inhibition at 500 µg/mL ([6]; ATCC11774): 13 mm | Genotoxic effect (in words) [17]: no genotoxic effect | Anaphase, dividing cells ([17]; Allium cepa, 1 μL/mL): 13.51% | Metaphase, dividing cells ([17]; Allium cepa, 1 μL/mL): 18.92% | Prophase, dividing cells ([17]; Allium cepa, 1 μL/mL): 59.46% | Telophase, dividing cells ([17]; Allium cepa, 1 μL/mL): 8.10% | Concentration that inhibits completely the growth of A. parasiticus [18]: 400 µg/mL | BChE inhibitory IC50 [19]: 209.60 µg/mL | AChE inhibitory IC50 [20]: 134.70 µg/mL | MIC [21]: 95 µg/mL (≈ 641 µM) | MIC [22]: 65 µg/mL (≈ 439 µM) | EC50 [23]: 132 µM | IC50 ([23]; Protein denaturation IC50, analyzed using Graph Pad Prism software): 1380 µM | IC50 ([23]; Protein denaturation IC50, analyzed using MS-EXCEL software): 130 µM | zone of inhibition at 250 µg/mL [13, 31]: 14 mm | zone of inhibition at 500 µg/mL [13, 31]: 18 mm | MIC [24]: 15 µg/mL (≈ 101 µM) | α-Amylase inhibitory IC50 [25, 29]: 13.08 ± 0.016 µg/mL | α-Amylase inhibitory IC50 [25, 30]: 22.16 ± 0.12 µg/mL | α-Amylase inhibitory EC50 ([25]; analyzed using XLSTAT software): 21.75 ± 0.008 µg/mL | Metal chelating IC50 [26, 29]: 12.15 ± 0.032 µg/mL | Metal chelating IC50 [26, 30]: 31.02 ± 0.018 µg/mL | Metal chelating EC50 [26]: 29.54 ± 0.032 µg/mL | zone of inhibition at 250 µg/mL ([8]; ATCC10876): 13 mm | zone of inhibition at 500 µg/mL ([8]; ATCC10876): 16 mm | zone of inhibition at 100 µg/mL ([9]; ATCC11632): 8 mm | zone of inhibition at 250 µg/mL ([9]; ATCC11632): 10 mm | zone of inhibition at 500 µg/mL ([9]; ATCC11632): 14 mm

SMILES: CCOS(C)(=O)=O [EMS, ethyl methanesulphonate]
Root length after treatment ± SD ([27]; after treatment): 7.31 ± 0.013 cm | Root length before treatment ± SD ([27]; before treatment): 7.24 ± 0.014 cm | Chromosomal aberration: Breakage [28]: 15 | Chromosomal aberration: Bridges [28]: 30 | Chromosomal aberration: Clumped [28]: 14 | Chromosomal aberration: Multipolarity [28]: 21 | Chromosomal aberration: Stickiness [28]: 28 | Total abberations [28]: 21.60% | Metaphase, dividing cells ([17]; Allium cepa root tips, 1 μL/mL): 13.27% | Mitotic index ([17]; Allium cepa root tips, 1 μL/mL): 1.96% | Prophase, dividing cells ([17]; Allium cepa root tips, 1 μL/mL): 86.73%

Metal chelating IC50 [26, 29]: 12.11 ± 0.002 µg/mL | Metal chelating IC50 [26, 30]: 29.92 ± 0.002 µg/mL | Metal chelating EC50 [26]: 29.33 ± 0.064 µg/mL
SMILES: O=C(O)CN(CCN(CC(=O)O)CC(=O)O)CC(=O)O [EDTA, ethylenediamminetetracetic acid]

Reference: PMC9200763 (Scientific Reports, 2022)
